Reference: patent US20120225054A1, “USE OF LEGUME EXTRACTS FOR INDUCING AND ENHANCING AUTOPHAGY AND APOPTOSIS AND FOR PREVENTING AND/OR TREATING CANCERS” (HERBAL BON BIOTECH INC., priority 2011, published 2012)

Legend:
[1] = system: murine hepatoma ML-1 cells; experiment: Flow cytometric analysis of apoptotic cells with autophagy inhibitor, ML-1; assay type: cell-based; settings: 10 mM 3-MA pretreatment 2 h, SC-1 265 μg/ml
Procedure: Murine ML-1 cells obtained from Dr. Huan-Yao Lei (Department of Microbiology and Immunology, Medical College, National Cheng Kung University, Tainan, Taiwan) were cultured in complete Dulbecco's modified Eagle medium (DMEM; GIBCO BRL, Grand Island, N.Y.) containing 10% fetal bovine serum (GIBCO BRL), 2 mM glutamine (Sigma, St. Louis, Mo.), 100 U/ml penicillin (Sigma), and 100 μg/ml streptomycin (Sigma) at 37° C. in a 5% CO2 humidified atmosphere.
(§1) Cells (2×10^5) grown in 6-well plates were pretreated with or without 10 mM of autophagy inhibitor 3-methyladenine (3-MA; Sigma, St. Louis, Mo.) for 2 h prior to the addition of SC-1 (265 μg/ml). The cells were harvested, centrifuged at 800g for 10 min at 4° C., and resuspended in HBS containing 40 μg/ml of propidium iodide and […] RNase A for 30 min at 37° C. in the dark. Measurement of apoptotic cells was performed using a FACScan flow cytometer (Becton Dickison, Mountain View, Calif., USA).
To confirm the importance of autophagy in the proceeding of apoptosis, autophagy inhibitor 3-MA was added to the cell culture and the relative portion of apoptotic cells was analyzed by flow cytometry. […] In FIG. 5B, it inhibited the fermented soybean extracts-induced apoptosis of Hep 3B cells approximately 42% at 48 h and 60% at 72 h. […]

human HCC Hep 3B cells = experiment: Flow cytometric analysis of apoptotic cells with autophagy inhibitor, Hep 3B; assay type: cell-based; settings: 10 mM 3-MA pretreatment 2 h, SC-1 265 μg/ml
Procedure: as §1
To confirm the importance of autophagy in the proceeding of apoptosis, autophagy inhibitor 3-MA was added to the cell culture and the relative portion of apoptotic cells was analyzed by flow cytometry. […] In FIG. 5B, it inhibited the fermented soybean extracts-induced apoptosis of Hep 3B cells approximately 42% at 48 h and 60% at 72 h. Therefore, it would not be surprised that the induction of apoptosis was observed only in combination with autophagy in tumors obtained from the mice received the fermented soybean extracts for a relatively long period of time (FIGS. 4A and B).

## Cn1cnc(N)c2ncnc1-2 [3-MA, 3-methyladenine]
[1]; 48 h
  inhibition of fermented soybean extracts-induced apoptosis: approximately 45%
[1]; 72 h
  inhibition of fermented soybean extracts-induced apoptosis: ~52%
Human HCC Hep 3B cells; 48 h
  inhibition of fermented soybean extracts-induced apoptosis: approximately 42%
Human HCC Hep 3B cells; 72 h
  inhibition of fermented soybean extracts-induced apoptosis: ~60%
